Our source for the IC50 and ED50 values is ChEMBL document CHEMBL1135114, “Syntheses and bioactivities of novel carbamates combining platelet activating factor (PAF) receptor antagonist with thromboxane synthase inhibitor (TxSI)” (Bioorg Med Chem Lett, 2002).

For assay [1], the target named is T1, Thromboxane-A synthase (Homo sapiens, UniProt P24557).
T1 sequence (P24557 whole entry): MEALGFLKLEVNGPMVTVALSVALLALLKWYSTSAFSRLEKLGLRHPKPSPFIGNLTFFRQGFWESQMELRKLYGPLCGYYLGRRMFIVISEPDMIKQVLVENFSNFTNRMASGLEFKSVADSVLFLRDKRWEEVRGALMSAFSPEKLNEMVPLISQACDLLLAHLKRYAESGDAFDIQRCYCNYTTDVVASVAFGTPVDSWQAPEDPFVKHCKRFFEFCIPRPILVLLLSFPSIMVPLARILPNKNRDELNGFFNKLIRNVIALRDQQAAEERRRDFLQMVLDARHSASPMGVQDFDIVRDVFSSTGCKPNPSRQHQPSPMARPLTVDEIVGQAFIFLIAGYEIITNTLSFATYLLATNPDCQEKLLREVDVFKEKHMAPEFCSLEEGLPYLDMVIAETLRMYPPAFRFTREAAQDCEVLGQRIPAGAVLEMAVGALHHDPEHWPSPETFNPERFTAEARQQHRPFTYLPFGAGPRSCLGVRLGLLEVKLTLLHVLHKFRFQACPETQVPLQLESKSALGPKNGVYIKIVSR
Description: Thromboxane A2 synthase inhibitory activity was measured from inhibition of thromboxane B2 production in human platelet microsomes. Set-up: species or system Microsome.

For assay [2], the system named is Rattus norvegicus. Description: Inhibition of serum TXB2 production in the rats after intravenous administration. The class given is functional.
The subject of assay [3] is Rattus norvegicus. The assay can be described thus: Inhibition of serum TXB2 production in the rats after peroral administration. The following applies: po. It is filed as functional.
In assay [4] the test system is Mus musculus. Description: Ability to protect mice from the lethal effect of Platelet activating factor on iv administration of compound. The class given is functional.
The subject of assay [5] is Mus musculus. Description: Ability to protect mice from the lethal effect of Platelet activating factor on po administration of compound. It is filed as functional.
Assay [6] is filed under the species Oryctolagus cuniculus. The assay can be described thus: The compound was tested for inhibition of Platelet activating factor (PAF) induced platelet aggregation in rabbit platelet rich plasma. The class given is functional.

pIC50: −log10 of the molar value. A value given as a limit tells only on which side of the number the result lay.

By pIC50 is commonly meant the negative decadic logarithm of the IC50, by convention in mol/L. Lower therefore signals a high IC50. For orientation: ED50 means the dose that gives a 50% effect, or the effect in half of the subjects. For the compound `CCOC(=O)CCCC/[N+]([O-])=C(/c1cccnc1)c1cccc(CN2CCc3c(sc4c3C(c3ccccc3Cl)=NCc3nnc(C)n3-4)C2)c1`, the negative logarithm of the IC50 (pIC50) is 7.17 in assay [1] and 6.72 in assay [6]. In addition, the median effective dose (ED50) was 0.1 mg/kg in assay [2], > 10 mg/kg in assay [3], 0.8 mg/kg in assay [4] and > 10 mg/kg in assay [5].
For the compound `CCOC(=O)CCCC/[N+]([O-])=C(/c1cccnc1)c1cccc(COC(=O)N2CCc3c(sc4c3C(c3ccccc3Cl)=NC(C)c3nnc(C)n3-4)C2)c1` (stereo not drawn), the negative-log IC50 (pIC50) in assay [1] is 7.16; in assay [6] it was 7.39. The ED50 is 0.1 mg/kg in assay [2], > 10 mg/kg in assay [3], 0.2 mg/kg in assay [4] and > 10 mg/kg in assay [5].
As to `CCOC(=O)CCCC/[N+]([O-])=C(/c1cccnc1)c1cccc(COC(=O)N2CCc3c(sc4c3C(c3ccccc3Cl)=NCc3nnc(C)n3-4)C2)c1`, the negative logarithm of the IC50 (pIC50) in assay [1] is 7.21; in assay [6], 6.86. Moreover, the 50% effective dose (ED50) was 0.1 mg/kg in assay [2], > 10 mg/kg in assay [3], 0.7 mg/kg in assay [4] and > 10 mg/kg in assay [5].
As to `CCOC(=O)CCCC/[N+]([O-])=C(/c1cccnc1)c1cccc(CN2CCc3c(sc4c3C(c3ccccc3Cl)=NC(C)c3nnc(C)n3-4)C2)c1` (stereo not drawn), the negative-log IC50 (pIC50) in assay [1] is 7.22; in assay [6] it was 7.33. The 50% effective dose (ED50) is 0.1 mg/kg in assay [2], > 10 mg/kg in assay [3], 0.2 mg/kg in assay [4] and > 10 mg/kg in assay [5].
In the case of `O=C(O)CCCC/C=C(/c1ccccc1)c1cccnc1` [ISBOGREL], the figures for the 50% effective dose (ED50) in assay [2] and in assay [3] were 0.01 mg/kg and 0.05 mg/kg, respectively.
Consider `O=C(O)/C=C/c1ccc(Cn2ccnc2)cc1` [OZAGREL], for which the ED50 is 0.02 mg/kg in assay [2] and 0.1 mg/kg in assay [3].
